US8598228B2, “Cinnamic acid ascorbates” (Merck Patent GmbH, priority 2009, dated 2013)

Tests used:
[1] = UV absorption maximum of product; format: physicochemical
Experimental: 20 g of (E)-3-(2,4,5-trimethoxyphenyl)acrylic acid (84 mmol; 1 eq.) are dissolved in 100 ml of dimethylformamide in an argon-flushed three-necked flask, and 11.1 g of diisopropylcarbodiimide (88.1 mmol, 1.05 eq.) are added. After 30 min, ascorbic acid (22.2 g, 126 mmol; 1.5 eq.) dissolved in 45 ml of dimethylformamide is added dropwise. After 30 min at 0° C., the mixture is stirred at room temperature for a further 6 hours. The reaction solution is evaporated to dryness, suspended in ethyl acetate/hexane 1:1 and filtered, and the product is precipitated as a pale-yellow solid by addition of hexane (λmax=354 nm).

[2] = cited from earlier work; for specific absorbance at the absorbance maximum (ε): MeOH

λmax [1]	SMILES	specific absorbance at the absorbance maximum (ε) [2]	λmax(MeOH) [2]
354 nm	COc1cc(OC)c(OC)cc1/C=C/C(=O)OC[C@@H](O)[C@H]1OC(=O)C(O)=C1O [Example 4, (R)-2-((R)-3,4-dihydroxy-5-oxo-2,5-dihydrofuran-2-yl)-2-hydroxyethyl (E)-3-(2,4,5-trimethoxyphenyl)acrylate]	–	–
–	CCCCC(CC)COC(=O)/C=C\c1ccc(OC)cc1 (stereo not drawn) [cis-EHMC]	13,500	304 nm
–	CCCCC(CC)COC(=O)/C=C/c1ccc(OC)cc1 (stereo not drawn) [trans-EHMC]	24,550	309 nm
